In brackets after ≈: the same amount, converted by molar mass. Several values for one entry are separate records, joined by “and”; a condition that tells them apart may be missing. Identical values can stand only once. Like-named read-outs stand apart in the source and are kept apart here.
Legend:
[1] = test system: MCF-10A; assay: MTT cytotoxicity assay, nonmalignant MCF-10A; details: read-out: MCF-10A IC50; MTT, nonmalignant MCF-10A;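 further: MTT assay with absorbance read at 570 nm after 48 h exposure of cells to serial compound concentrations at 37 °C, testing selectivity against nonmalignant versus cancer cells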
[2] = in vitro; details: human, MCF-10A cells (nonmalignant breast)
[3] = test system: MCF-7; assay: MTT cytotoxicity assay, MCF-7; details: for IC50: Homo sapiens
[4] = target: EGFR (Homo sapiens, UniProt P00533); assay: In vitro EGFR enzyme inhibition assay (ELISA)
Chain of EGFR (P00533 25-1210): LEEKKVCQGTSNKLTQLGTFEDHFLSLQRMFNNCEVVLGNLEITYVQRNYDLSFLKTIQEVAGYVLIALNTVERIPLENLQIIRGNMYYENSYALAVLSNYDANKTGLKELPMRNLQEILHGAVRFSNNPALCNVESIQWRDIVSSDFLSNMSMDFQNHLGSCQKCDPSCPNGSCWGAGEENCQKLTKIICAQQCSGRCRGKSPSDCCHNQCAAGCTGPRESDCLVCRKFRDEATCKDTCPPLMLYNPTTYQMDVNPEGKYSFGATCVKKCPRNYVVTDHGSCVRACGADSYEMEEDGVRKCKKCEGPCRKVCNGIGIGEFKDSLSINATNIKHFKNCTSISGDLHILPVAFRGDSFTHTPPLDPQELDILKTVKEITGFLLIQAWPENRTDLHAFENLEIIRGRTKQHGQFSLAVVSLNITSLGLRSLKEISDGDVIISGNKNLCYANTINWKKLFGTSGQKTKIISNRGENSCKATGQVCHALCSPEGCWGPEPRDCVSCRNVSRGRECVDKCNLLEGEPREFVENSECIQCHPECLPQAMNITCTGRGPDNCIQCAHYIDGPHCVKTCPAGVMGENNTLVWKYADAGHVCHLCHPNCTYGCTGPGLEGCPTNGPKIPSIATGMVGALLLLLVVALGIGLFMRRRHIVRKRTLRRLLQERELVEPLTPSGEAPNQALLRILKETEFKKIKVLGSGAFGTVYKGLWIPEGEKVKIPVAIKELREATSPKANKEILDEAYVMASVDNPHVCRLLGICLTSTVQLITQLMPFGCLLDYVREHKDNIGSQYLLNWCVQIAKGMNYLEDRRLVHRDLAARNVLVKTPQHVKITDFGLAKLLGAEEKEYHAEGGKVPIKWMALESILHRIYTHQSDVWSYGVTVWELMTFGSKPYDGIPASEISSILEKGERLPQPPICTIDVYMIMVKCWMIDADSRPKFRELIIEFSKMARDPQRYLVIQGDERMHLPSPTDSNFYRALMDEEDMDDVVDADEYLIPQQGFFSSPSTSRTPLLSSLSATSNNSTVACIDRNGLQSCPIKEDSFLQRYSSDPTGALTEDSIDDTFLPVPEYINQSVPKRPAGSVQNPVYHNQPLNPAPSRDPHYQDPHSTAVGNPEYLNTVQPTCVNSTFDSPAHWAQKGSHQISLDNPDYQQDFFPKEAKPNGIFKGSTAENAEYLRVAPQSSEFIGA

[5] = test system: MDA-MB-231; assay: MTT cytotoxicity assay, MDA-MB-231; details: for IC50: Homo sapiens; for % viability: MDA
[6] = test system: Bax; assay: Bax level (ELISA) in treated cells; format: cell-based, human
[7] = test system: Caspase-9; assay: Caspase-9 level (ELISA) in treated cells; format: cell-based, human
[8] = test system: Bcl-2; assay: Bcl-2 level (ELISA) in treated cells; format: cell-based, human; details: for Bcl-2 Conc. (Average) / Bcl-2 Conc. (single wells): Bcl-2 ELISA; for BCL2 FLD (fold vs control): cont.MDA = 1
[9] = MDA, ELISA backfit, duplicate wells
[10] = MDA cells (MDA-MB-231) treated with the compound, cont.MDA 2.611±0.19
[11] = MDA cells (MDA-MB-231), caspase9 ELISA, duplicate wells, control 4.084
[12] = MDA cells (MDA-MB-231), cont.MDA = 1
[13] = MDA cells (MDA-MB-231) treated with the compound, cont.MDA 10.83±0.046
[14] = MDA cells (MDA-MB-231), duplicate wells, control 10.83
[15] = MDA cells (MDA-MB-231), mean of 2 wells, control 10.83

CC(=O)Oc1ccc2c(COC(=O)c3ccccc3)cc(=O)oc2c1 [Compound 13, (7-Acetoxy-2-oxo-2H-chromen-4-yl)methyl benzoate]
IC50 [1]: 490 ± 8.1 µM | IC50 at 48 h [2]: 166 ± 8.1 µg/mL (≈ 491 µM) | viability at 48 h, 0.4 ug [2]: 89.7% | viability at 48 h, 1.6 ug [2]: 81.1% | viability at 48 h, 6.25 ug [2]: 73.6% | viability at 48 h, 25 ug [2]: 63.3% | viability at 48 h, 100 ug [2]: 52.2% | IC50 ([3]; MCF7, read-out: MCF-7 IC50): 111 ± 2.28 µM | IC50 ([3]; MCF7, read-out: cytotoxicity_IC50 mcf7): 37.6 ± 2.28 µg/mL | % viability ([3]; MCF7, 0.4ug): 80.82% | % viability ([3]; MCF7, 1.6ug): 70.97% | % viability ([3]; MCF7, 6.3ug): 64.282% | % viability ([3]; MCF7, 25ug): 55.0733% | % viability ([3]; MCF7, 100ug): 40.88% | IC50 ([4]; EGFR IC50, lab report 01-11-2021, 10 compounds): 364 nM | IC50 ([4]; EGFR inhibition IC50): 363 ± 20 nM | Percentage above Reference IC50 (potency relative to erlotinib) ([4]; reference Erlotinib): 23.14% | IC50 ([5]; MDA-MB-231, read-out: MDA-MBA-231 IC50): 30.7 ± 0.56 µM | IC50 ([5]; MDA-MB-231, read-out: cytotoxicity_IC50 MDA): 10.4 ± 0.56 µg/mL | % viability ([5]; 0.4ug (log conc. -0.41)): 65.76% | % viability ([5]; 1.6ug (log conc. 0.19)): 58.55% | % viability ([5]; 6.25ug (log conc. 0.8)): 52.297% | % viability ([5]; 25ug (log conc. 1.4)): 46.9551% | % viability ([5]; 100ug (log conc. 2)): 38.515%

O=C(COc1ccc2c(COC(=O)c3ccccc3)cc(=O)oc2c1)c1ccc(Cl)cc1 [Compound S8]
Bax Conc. (Average) ([6]; MCF7, ELISA backfit, wells A2-C2): 164.5 pg/mL | BAX ([6]; MCF7, cell culture supernatant): 164.5 ± 5.58 pg/mL | BAX FLD ([6]; MCF7, fold vs cont.MCF7 = 1): 5.27 | Casp9 ([7]; MCF7 cells treated with the compound, cont.MCF7 4.528±0.61): 30.39 ± 2.56 ng/mL | Caspase 9 Conc. (Average) ([7]; MCF7 cells, caspase9 ELISA, mean of 3 wells, control 4.528): 30.39 ng/mL | Caspase 9 Conc. (single wells) ([7]; MCF7 cells, caspase9 ELISA, replicate wells, control 4.528): 27.43 ng/mL and 31.78 ng/mL and 31.97 ng/mL | Casp9 FLD (fold vs control) ([7]; MCF7 cells, cont.MCF7 = 1): 6.71 | BCL2 conc. ([8]; MCF7): 3.291 ± 0.36 ng/mL | BCL2 FLD ([8]; MCF7, fold vs cont.MCF7 = 1): 0.44 | Bcl-2 Conc. (Average) ([8]; MCF7 cells treated with the compound, mean of 3 wells, control 7.438): 3.291 ng/mL | Bcl-2 Conc. (single wells) ([8]; MCF7 cells treated with the compound, replicate wells, control 7.438): 3.693 ng/mL and 3.01 ng/mL and 3.172 ng/mL

O=C(COc1ccc2c(COC(=O)c3ccc(Cl)cc3)cc(=O)oc2c1)c1ccc(Cl)cc1 [s10]
Bax Conc. (Average) [6, 9]: 248.9 pg/mL | BAX ([6]; MDA, cell culture supernatant): 248.9 ± 7.88 pg/mL | BAX FLD ([6]; MDA, fold vs cont.MDA = 1): 3.6 | Casp9 [7, 10]: 16.77 ± 0.37 ng/mL | Caspase 9 Conc. (single wells) [7, 11]: 18.48 ng/mL and 17.62 ng/mL | Casp9 FLD (fold vs control) [7, 12]: 6.42 | BCL2 conc. [8, 13]: 4.088 ± 0.058 ng/mL | Bcl-2 Conc. (single wells) [8, 14]: 4.046 ng/mL and 4.129 ng/mL | Bcl-2 Conc. (Average) [8, 15]: 4.088 ng/mL | BCL2 FLD (fold vs control) ([8]; MDA cells (MDA-MB-231)): 0.377

COc1ccccc1C(=O)OCc1cc(=O)oc2cc(OCC(=O)c3ccc(Cl)cc3)ccc12 [s12]
Bax Conc. (Average) [6, 9]: 360.4 pg/mL | BAX ([6]; MDA, cell culture supernatant): 360.4 ± 11.8 pg/mL | BAX FLD ([6]; MDA, fold vs cont.MDA = 1): 5.22 | Casp9 [7, 10]: 19.16 ± 0.41 ng/mL | Caspase 9 Conc. (single wells) [7, 11]: 21.43 ng/mL and 21.56 ng/mL | Casp9 FLD (fold vs control) [7, 12]: 7.34 | BCL2 conc. [8, 13]: 2.934 ± 0.154 ng/mL | Bcl-2 Conc. (single wells) [8, 14]: 2.826 ng/mL and 3.043 ng/mL | Bcl-2 Conc. (Average) [8, 15]: 2.934 ng/mL | BCL2 FLD (fold vs control) ([8]; MDA cells (MDA-MB-231)): 0.271

— article PMC10435442, “Developing multitarget coumarin based anti-breast cancer agents: synthesis and molecular modeling study” (Scientific Reports, 2023)
